Data published in patent US20200338084A1, “INHIBITORS OF LOW MOLECULAR WEIGHT PROTEIN TYROSINE PHOSPHATASE (LMPTP) AND USES THEREOF” (Sanford Burnham Prebys Medical Discovery Institute, priority 2018, published 2020).

Each compound was assayed against T1, human LMPTP-A (Homo sapiens, UniProt P24666) (assay: Enzyme Assay of Inhibition of LMPTP-A). Details: phosphatase assay, OMFP or pNPP substrate, 50 mM Bis-Tris pH 6.0, 37° C.
T1 sequence (P24666 1-158): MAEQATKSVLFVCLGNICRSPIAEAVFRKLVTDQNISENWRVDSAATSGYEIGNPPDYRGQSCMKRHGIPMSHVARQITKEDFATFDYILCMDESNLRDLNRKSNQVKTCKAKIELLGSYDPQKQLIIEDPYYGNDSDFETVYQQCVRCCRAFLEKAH
Type: biochemical
Method in brief: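 Recombinant human LMPTP-A in 50 mM Bis-Tris pH 6.0, 1 mM DTT, 0.01% Triton X-100 at 37° C. Substrate OMFP read continuously by fluorescence (485/525 nm), or pNPP stopped with NaOH and read at 405 nm. IC50 taken from inhibitor concentration versus % activity plots.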
An IC50 of no more than 1000 nM was found for `COc1ccc(Cc2nc3c(N)ncn(Cc4c(Cl)cccc4Cl)c-3n2)cc1` [3-[(2,6-dichlorophenyl)methyl]-8-[(4-methoxyphenyl)methyl]-3-hydropurine-6-ylamine] in this work. An IC50 of no less than 20000 nM was found for `Clc1ccc(Cn2cnc(NCc3ccco3)c3ncnc2-3)cc1` [[3-(4-Chloro-benzyl)-3H-purin-6-yl]-furan-2-ylmethyl-amine] in this work. An IC50 of no more than 1000 nM was found for `Nc1ncn(Cc2c(Cl)cccc2Cl)c2nc(C3CCCCC3)nc1-2` [3-[(2,6-Dichlorophenyl)methyl]-8-cyclohexyl-3-hydropurine-6-ylamine] in this work. An IC50 of 1000 to 20000 nM was found for `Nc1ncn(Cc2cc(Cl)ccc2Cl)c2ncnc1-2` [3-(2,5-Dichloro-benzyl)-3H-purin-6-ylamine] in this work. An IC50 of 1000 to 20000 nM was found for `FC(F)Oc1cccc(Nc2ncn(Cc3c(Cl)cccc3Cl)c3ncnc2-3)c1` [3-(2,6-dichlorobenzyl)-N-(3-(difluoromethoxy)phenyl)-3H-purin-6-amine] in this work. An IC50 of no more than 1000 nM was found for `CN1CCC(c2nc3c(N)ncn(Cc4c(Cl)cccc4Cl)c-3n2)CC1` [3-[(2,6-Dichlorophenyl)methyl]-8-(1-methyl(4-piperidyl))-3-hydropurine-6-ylamine] in this work. An IC50 of 1000 to 20000 nM was found for `COc1ccc(Nc2ncn(Cc3c(Cl)cccc3Cl)c3ncnc2-3)cc1` [3-(2,6-Dichlorobenzyl)-N-(4-methoxyphenyl)-3H-purin-6-amine] in this work. An IC50 of no more than 1000 nM was found for `NC(=O)c1cccc(Cl)c1Cn1cnc(N)c2ncnc1-2` [2-((6-amino-3H-purin-3-yl)methyl)-3-chlorobenzamide] in this work. An IC50 of no less than 20000 nM was found for `Cn1ccnc1Cn1cnc(N)c2ncnc1-2` [3-((1-methyl-1H-imidazol-2-yl)methyl)-3H-purin-6-amine] in this work. An IC50 of no more than 1000 nM was found for `Nc1ncn(Cc2c(Cl)cccc2I)c2ncnc1-2` [3-(2-Chloro-6-iodo-benzyl)-3H-purin-6-ylamine] in this work. An IC50 of no more than 1000 nM was found for `Nc1ncn(Cc2c(Cl)cccc2Cl)c2nc(Cc3ccccc3)nc1-2` [3-[(2,6-Dichlorophenyl)methyl]-8-benzyl-3-hydropurine-6-ylamine] in this work. An IC50 of no less than 20000 nM was found for `Nc1ncn(Cc2cccc(Cl)c2)c2ncnc1-2` [3-(3-chlorobenzyl)-3H-purin-6-amine] in this work. An IC50 of no less than 20000 nM was found for `O=C(Nc1ncn(Cc2c(Cl)cccc2Cl)c2ncnc1-2)c1ccccc1` [N-[3-(2,6-Dichloro-benzyl)-3H-purin-6-yl]-benzamide] in this work. An IC50 of no less than 20000 nM was found for `CS(=O)(=O)Nc1ncn(Cc2c(Cl)cccc2Cl)c2ncnc1-2` [N-(3-(2,6-dichlorobenzyl)-3h-purin-6-yl)methanesulfonamide] in this work. An IC50 of 1000 to 20000 nM was found for `Clc1cccc(Cl)c1Cn1cnc(NC2CC2)c2ncnc1-2` [Cyclopropyl-[3-(2,6-dichloro-benzyl)-3H-purin-6-yl]-amine] in this work. An IC50 of no more than 1000 nM was found for `Nc1ncn(Cc2c(Cl)cccc2Cl)c2nc(-c3ccsc3)nc1-2` [3-[(2,6-Dichlorophenyl)methyl]-8-(3-thienyl)-3-hydropurine-6-ylamine] in this work. An IC50 of 1000 to 20000 nM was found for `Nc1ncn(Cc2ccccn2)c2ncnc1-2` [3-Pyridin-2-ylmethyl-3H-purin-6-ylamine] in this work. An IC50 of no more than 1000 nM was found for `Nc1ncn(Cc2c(Cl)cccc2Cl)c2ncnc1-2` [3-<2,6-Dichloro-benzyl)-3H-purin-6-ylamine] in this work.
